Four compounds from PMC5554444 (Cancer prevention research (Philadelphia, Pa.), 2011) can be followed below.

One data set has as its system MCF7 breast cancer cells. As to the kind of experiment: SRB assay, anti-proliferative potential. Particulars: Homo sapiens, MCF7, 72 h, read-out: SRB assay IC50. Type of data set: cell-based. Background: Sulforhodamine B stains cellular protein and so reports cell mass.
The subject of data set [1] is MCF7 cells. As to the kind of experiment: RT2 Profiler PCR array of 84 human cell cycle genes. Type of data set: cell-based.
A short description of data set [2]: Caco-2 cell monolayer permeability. The format is in vitro ADME. Particulars: human, Caco-2, pH 7.4.
In another data set the test system is Caco-2 cell monolayer. Put plainly: Caco-2 cell monolayer permeability. The format is in vitro ADME. Conditions: Caco-2.
For data set [3], the system named is MNU-induced mammary tumors. As to the kind of experiment: MNU-induced mammary tumor growth in Sprague-Dawley rats. The format is in vivo, rat. Conditions: 10 mg/kg BW/day, six weeks, 10 rats/group, p = 0.1 Mann-Whitney.
A further data set addresses T1, human RXRα (Homo sapiens, UniProt P19793).
T1 sequence (P19793 1-462): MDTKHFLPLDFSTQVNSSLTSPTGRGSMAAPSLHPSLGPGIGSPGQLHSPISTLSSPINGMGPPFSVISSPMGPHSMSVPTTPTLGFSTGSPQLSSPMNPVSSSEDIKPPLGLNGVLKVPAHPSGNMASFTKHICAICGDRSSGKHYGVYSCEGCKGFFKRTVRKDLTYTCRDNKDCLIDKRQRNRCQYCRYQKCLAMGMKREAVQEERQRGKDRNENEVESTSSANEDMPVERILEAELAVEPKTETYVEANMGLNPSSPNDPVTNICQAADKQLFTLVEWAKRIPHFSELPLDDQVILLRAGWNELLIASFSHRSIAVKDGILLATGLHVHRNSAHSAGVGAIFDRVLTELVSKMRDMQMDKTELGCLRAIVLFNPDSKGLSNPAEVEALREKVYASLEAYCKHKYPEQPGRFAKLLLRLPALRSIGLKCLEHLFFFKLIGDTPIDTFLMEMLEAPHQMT
Particulars: COS-1 cells, 24 h.

The test system of data set [4] is MCF7 cells. Put plainly: Western blot of p53 and p21 protein. Conditions: 1 μM, 8, 24 and 48 h. Type of data set: cell-based, human. (Immunoblotting shows a protein as a band on a membrane.)
The subject of data set [5] is MCF7 cells. As to the kind of experiment: Cell cycle distribution by NIM-DAPI flow cytometry. Type of data set: cell-based, human. Conditions: 2.5 μM. A general note: Flow cytometry measures light scatter and fluorescence of single cells or particles in a stream.
A short description of data set [6]: Absorption and distribution in rats after gavage. The format is in vivo, rat. Conditions: 40 mg/kg by gavage, 3 h after first treatment, individual rats; listed as AM6-36.
The test system of a further data set is HL-60 cells. As to the kind of experiment: Expression of cell surface marker CD38 by flow cytometry. The format is cell-based, human.

Where “and” joins values, the source holds several entries; their conditions need not be identical. Equal values may be shown once.

With `CC[C@@]1(O)C(=O)OCc2c1cc1n(c2=O)Cc2cc3ccccc3nc2-1` [Camptothecin], in the data set with MCF7 breast cancer cells, the IC50 (usually the midpoint of a concentration-inhibition curve) was 1.41 nM.

As for `C=C(c1ccc(C(=O)O)cc1)c1cc2c(cc1C)C(C)(C)CCC2(C)C` [Bexarotene, reference compound], the “Number of genes out of 84 with significantly altered expression” value with MCF7 cells [1] (24 h, AM6-36 1 μM, bexarotene 100 μM, P <0.05) came out at 9.

For `Cl.Cl.NCCCn1c2c(c3ccc(N)cc3c1=O)C(=O)c1ccccc1-2` [Compound 3, 3-amino-6-(3-aminopropyl)-5,6-dihydro-5,11-dioxo-11H-indeno[1,2-c]isoquinoline dihydrochloride], in data set [2], the apical-to-basolateral permeability (Papp A→B) (in general, the apparent permeability from the apical to the basolateral side of a cell layer) at 5 µM amounted to 2.75 ± 0.78 ×10⁻⁶ cm/s; the Papp A→B at 10 µM was determined as 5.52 ± 0.29 ×10⁻⁶ cm/s; the apparent permeability from apical to basolateral (Papp A→B) at 25 µM turned out to be 4.45 ± 0.71 ×10⁻⁶ cm/s; the Papp B→A – broadly, how fast a substance crosses the layer from the basolateral side – at 5 µM worked out at 3.95 ± 0.11 ×10⁻⁶ cm/s. In data set [2], this compound had a Papp B→A at 10 µM of 3.25 ± 0.71 ×10⁻⁶ cm/s and a Papp B→A at 25 µM of 8.26 ± 0.93 ×10⁻⁶ cm/s. Moreover, in the data set on Caco-2 cell monolayer, the “Papp AP to BL, times slower than propranolol” value came out at 10 fold. Also, the “Growth of MNU-induced mammary tumors” value in data set [3] is on record as “clearly attenuated tumor growth”. Also, the “Up-regulation of CDKN1A expression” value in the data set on MCF7 cells [1] (DNA microarray analysis) stood at 35 fold. On human RXRα (20 μM), the “Relative luciferase activity induction” value came out at 133.2 fold. Also, on human RXRα (40 μM), the “RXRE assay, fold increase of relative luciferase activity over vehicle” value turned out to be 5.49±0.34 fold. In the data set on MCF7 cells [4], the p21 protein expression result is “moderate increase at 8 h, and incremental expression was observed at 24 and 48 h”; the p53 protein level result was “increase of p53 at 8 h, followed by decreases at 24 and 48 h”. For the same compound, the Cell cycle distribution entry in the data set with MCF7 cells [5] is on record as “S phase arrest”. Also, the “Serum 1-day” value in data set [6] is 0.84 ± 0.01 μg/ml and 2.14 μM and 0.82 ± 0.004 μg/ml and 2.09 μM.

As to `CC1=C(/C=C/C(C)=C\C=C\C(C)=C\C(=O)O)C(C)(C)CCC1` [Compound 9-cis-RA, 9-cis-Retinoic acid], in the data set with HL-60 cells (HL-60 cells, 2 nM), the “FL-1 positive cells (CD38)” value amounted to 86.7%. Also, the “CD38-expressing cell population (FL-1 positive)” value in the data set with HL-60 cells (HL-60 cells, 2000, 200, 20 nM) is recorded as “about 95%”.
